# Experimental data from BindingDB's records for doi:10.1002/cbic.200400192 (Max-Planck-Institut FÜR Molekulare Physiologie, 2005).
# pIC50: −log10 of the molar value.
# Assays:
# Assay in all cases: Inhibition Assay
# Angiopoietin-1 receptor = Angiopoietin-1 receptor (Homo sapiens, UniProt Q02763)
# Protocol: (§1) The kinase-catalyzed phosphorylation of poly(Glu4-Tyr) in the presence of varying concentrations of inhibitor was determined. The kinase were employed as fusion proteins of glutathion-S-transferase (GST) and the kinase domain. The relative amount of phosphorylated substrate was quantified by antiphosphotyrosine enzyme-linked immunosorbent assay.
# [1] = target: Vascular endothelial growth factor receptor 2 (Homo sapiens, UniProt P35968)
# Chain of Vascular endothelial growth factor receptor 2 (P35968 whole entry): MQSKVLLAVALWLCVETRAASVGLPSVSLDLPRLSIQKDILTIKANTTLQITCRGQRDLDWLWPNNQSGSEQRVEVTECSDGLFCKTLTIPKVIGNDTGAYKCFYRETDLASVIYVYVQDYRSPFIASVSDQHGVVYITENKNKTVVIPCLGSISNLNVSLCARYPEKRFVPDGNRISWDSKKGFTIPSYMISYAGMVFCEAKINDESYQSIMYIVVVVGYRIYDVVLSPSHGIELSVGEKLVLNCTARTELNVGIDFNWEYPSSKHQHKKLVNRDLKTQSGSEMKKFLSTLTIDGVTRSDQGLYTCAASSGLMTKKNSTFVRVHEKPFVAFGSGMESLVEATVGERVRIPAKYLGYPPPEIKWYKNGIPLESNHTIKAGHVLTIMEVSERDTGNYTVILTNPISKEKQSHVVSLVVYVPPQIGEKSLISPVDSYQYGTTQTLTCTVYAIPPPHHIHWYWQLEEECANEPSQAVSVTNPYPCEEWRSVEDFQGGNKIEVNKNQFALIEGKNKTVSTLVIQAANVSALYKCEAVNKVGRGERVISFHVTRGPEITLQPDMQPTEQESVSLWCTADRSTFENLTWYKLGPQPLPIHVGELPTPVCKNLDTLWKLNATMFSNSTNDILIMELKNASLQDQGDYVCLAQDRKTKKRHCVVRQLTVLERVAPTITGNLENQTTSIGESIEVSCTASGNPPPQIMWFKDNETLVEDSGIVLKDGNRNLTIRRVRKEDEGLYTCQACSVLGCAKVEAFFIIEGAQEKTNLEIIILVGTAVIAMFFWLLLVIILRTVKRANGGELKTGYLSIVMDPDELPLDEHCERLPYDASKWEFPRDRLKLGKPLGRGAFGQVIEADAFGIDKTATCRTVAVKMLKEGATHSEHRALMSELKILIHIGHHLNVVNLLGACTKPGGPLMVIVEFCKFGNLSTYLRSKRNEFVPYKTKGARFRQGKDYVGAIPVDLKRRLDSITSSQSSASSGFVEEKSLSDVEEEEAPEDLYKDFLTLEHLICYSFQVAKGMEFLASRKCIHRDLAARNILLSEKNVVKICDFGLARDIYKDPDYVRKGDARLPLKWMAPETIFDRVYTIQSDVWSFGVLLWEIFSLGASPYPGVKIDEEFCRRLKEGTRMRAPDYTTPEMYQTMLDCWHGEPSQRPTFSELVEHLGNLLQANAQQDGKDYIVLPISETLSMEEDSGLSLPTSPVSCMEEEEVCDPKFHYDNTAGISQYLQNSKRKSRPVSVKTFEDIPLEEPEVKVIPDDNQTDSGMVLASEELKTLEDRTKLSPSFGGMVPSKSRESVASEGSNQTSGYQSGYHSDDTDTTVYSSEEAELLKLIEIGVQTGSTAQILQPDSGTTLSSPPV
# Protocol: as §1
# [2] = target: Vascular endothelial growth factor receptor 3 (Homo sapiens, UniProt P35916)
# Chain of Vascular endothelial growth factor receptor 3 (P35916 whole entry): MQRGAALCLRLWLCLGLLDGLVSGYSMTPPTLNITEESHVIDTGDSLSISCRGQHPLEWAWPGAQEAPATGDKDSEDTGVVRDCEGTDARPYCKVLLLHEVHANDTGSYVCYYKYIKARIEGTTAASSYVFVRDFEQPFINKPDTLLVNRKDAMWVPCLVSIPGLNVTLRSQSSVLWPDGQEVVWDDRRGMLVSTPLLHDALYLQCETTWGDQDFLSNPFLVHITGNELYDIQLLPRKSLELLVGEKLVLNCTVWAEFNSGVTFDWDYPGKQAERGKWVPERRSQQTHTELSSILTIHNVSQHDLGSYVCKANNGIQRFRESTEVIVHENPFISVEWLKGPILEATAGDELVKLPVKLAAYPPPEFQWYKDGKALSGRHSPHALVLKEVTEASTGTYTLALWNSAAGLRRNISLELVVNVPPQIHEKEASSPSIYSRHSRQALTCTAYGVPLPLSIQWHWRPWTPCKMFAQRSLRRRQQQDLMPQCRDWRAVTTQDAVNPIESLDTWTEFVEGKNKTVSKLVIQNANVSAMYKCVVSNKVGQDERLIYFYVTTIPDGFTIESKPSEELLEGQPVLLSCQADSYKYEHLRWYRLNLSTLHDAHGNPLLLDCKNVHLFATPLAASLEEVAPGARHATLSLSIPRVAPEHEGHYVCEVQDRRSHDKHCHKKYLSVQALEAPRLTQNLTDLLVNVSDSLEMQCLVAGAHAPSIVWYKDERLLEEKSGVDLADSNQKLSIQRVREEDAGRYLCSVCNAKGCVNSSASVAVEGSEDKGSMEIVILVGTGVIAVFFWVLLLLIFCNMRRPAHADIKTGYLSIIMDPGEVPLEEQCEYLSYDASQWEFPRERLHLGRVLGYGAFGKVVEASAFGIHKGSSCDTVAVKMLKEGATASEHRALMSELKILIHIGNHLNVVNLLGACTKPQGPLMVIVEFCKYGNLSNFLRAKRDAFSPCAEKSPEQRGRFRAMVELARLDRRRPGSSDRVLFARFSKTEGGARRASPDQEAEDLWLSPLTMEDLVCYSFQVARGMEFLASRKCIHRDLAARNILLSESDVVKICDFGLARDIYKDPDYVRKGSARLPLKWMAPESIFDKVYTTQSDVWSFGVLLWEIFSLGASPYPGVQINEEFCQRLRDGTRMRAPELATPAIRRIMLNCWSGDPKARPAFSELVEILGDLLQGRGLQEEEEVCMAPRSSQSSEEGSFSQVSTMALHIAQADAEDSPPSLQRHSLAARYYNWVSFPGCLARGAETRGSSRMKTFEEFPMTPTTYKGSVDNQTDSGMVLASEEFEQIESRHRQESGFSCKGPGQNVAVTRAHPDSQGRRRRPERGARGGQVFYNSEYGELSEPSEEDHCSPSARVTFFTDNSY
# Protocol: as §1
# [3] = target: Epidermal growth factor receptor (Homo sapiens, UniProt P00533)
# Chain of Epidermal growth factor receptor (P00533 whole entry): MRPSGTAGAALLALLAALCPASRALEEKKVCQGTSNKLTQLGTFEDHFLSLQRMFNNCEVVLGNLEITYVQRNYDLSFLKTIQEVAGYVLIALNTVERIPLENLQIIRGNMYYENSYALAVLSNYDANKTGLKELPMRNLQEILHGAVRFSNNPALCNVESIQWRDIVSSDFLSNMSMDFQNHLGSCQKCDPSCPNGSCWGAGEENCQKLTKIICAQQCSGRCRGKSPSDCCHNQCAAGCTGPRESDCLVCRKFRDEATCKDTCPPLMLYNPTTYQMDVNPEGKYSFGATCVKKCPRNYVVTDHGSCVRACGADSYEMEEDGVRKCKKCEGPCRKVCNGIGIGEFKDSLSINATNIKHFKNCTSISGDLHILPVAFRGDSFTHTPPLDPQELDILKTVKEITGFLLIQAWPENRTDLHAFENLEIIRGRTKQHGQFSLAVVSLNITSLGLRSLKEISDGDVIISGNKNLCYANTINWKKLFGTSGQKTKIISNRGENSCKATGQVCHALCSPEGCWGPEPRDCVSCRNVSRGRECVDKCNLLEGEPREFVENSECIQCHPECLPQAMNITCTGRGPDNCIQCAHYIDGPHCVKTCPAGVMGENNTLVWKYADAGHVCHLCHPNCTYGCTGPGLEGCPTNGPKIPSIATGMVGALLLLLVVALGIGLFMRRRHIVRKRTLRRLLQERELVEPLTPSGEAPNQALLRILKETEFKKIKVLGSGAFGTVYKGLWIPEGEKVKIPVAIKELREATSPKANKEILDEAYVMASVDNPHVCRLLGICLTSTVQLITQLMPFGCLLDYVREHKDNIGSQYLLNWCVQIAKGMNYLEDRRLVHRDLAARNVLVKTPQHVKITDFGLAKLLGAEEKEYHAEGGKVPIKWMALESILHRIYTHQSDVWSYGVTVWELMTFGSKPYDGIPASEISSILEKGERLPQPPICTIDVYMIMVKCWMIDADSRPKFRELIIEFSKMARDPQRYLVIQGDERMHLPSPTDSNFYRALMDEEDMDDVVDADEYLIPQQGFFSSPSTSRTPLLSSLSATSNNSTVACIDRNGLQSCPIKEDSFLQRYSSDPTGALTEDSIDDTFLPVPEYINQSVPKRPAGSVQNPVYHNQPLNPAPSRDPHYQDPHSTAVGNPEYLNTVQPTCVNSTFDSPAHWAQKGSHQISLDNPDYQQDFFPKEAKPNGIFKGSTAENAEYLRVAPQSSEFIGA
# Protocol: as §1
# [4] = target: Fibroblast growth factor receptor 1 (Homo sapiens, UniProt P11362)
# Protocol: as §1
# [5] = target: Insulin-like growth factor 1 receptor (Homo sapiens, UniProt P08069)
# Protocol: as §1
# Chain of Angiopoietin-1 receptor (Q02763 whole entry, the tested form may be a part): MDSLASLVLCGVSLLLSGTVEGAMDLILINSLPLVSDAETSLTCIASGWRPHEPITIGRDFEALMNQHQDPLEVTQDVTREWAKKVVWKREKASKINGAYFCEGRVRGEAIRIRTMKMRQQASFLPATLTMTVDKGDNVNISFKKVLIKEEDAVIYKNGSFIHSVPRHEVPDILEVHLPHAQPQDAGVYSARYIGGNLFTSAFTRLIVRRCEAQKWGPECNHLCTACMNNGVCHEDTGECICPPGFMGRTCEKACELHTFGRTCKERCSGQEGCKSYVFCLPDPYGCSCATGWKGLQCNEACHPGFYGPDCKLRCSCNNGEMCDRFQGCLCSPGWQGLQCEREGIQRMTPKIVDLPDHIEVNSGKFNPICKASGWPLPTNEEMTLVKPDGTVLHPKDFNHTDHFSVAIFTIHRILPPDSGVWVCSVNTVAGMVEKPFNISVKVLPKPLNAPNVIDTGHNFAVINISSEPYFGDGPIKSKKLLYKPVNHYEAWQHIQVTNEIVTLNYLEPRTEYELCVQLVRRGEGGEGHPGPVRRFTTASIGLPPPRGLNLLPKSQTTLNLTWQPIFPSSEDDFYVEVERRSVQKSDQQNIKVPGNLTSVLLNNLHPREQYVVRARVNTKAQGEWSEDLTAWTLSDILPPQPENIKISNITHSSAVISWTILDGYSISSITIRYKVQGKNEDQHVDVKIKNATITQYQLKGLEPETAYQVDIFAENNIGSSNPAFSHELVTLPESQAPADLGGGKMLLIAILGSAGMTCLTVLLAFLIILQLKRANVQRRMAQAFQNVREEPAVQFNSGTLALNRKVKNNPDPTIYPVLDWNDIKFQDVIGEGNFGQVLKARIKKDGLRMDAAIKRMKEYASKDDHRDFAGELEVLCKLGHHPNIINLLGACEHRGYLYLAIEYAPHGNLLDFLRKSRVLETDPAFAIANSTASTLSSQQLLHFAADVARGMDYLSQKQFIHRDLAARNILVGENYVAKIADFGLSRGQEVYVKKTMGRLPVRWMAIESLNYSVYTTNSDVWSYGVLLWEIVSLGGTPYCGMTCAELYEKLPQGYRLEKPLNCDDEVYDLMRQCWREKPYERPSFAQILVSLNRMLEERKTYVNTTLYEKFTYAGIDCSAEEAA
Compound,pIC50 (Angiopoietin-1 receptor),pIC50 [1],pIC50 [2],pIC50 [3],pIC50 [4],pIC50 [5]
"CC1=C(CC(=O)O)c2cc(F)ccc2/C1=C\c1ccc(F)c(F)c1 [Sulindac analogue, 10]",5.30,–,–,–,–,–
"CC1=C(CC(=O)O)c2cc(F)ccc2/C1=C\c1cccc(OCc2ccccc2)c1 [Sulindac analogue, 11]",4.96,–,–,–,–,–
"CC1=C(CC(=O)O)c2cc(F)ccc2/C1=C\c1cccs1 [Sulindac analogue, 12]",5.30,–,–,–,–,–
"CC1=C(CC(=O)O)c2cc(F)ccc2/C1=C\c1ccsc1 [Sulindac analogue, 13]",6.22,4.85,4.82,–,–,–
"CC1=C(CC(=O)O)c2cc(F)ccc2/C1=C\c1ccoc1 [Sulindac analogue, 14]",–,5.10,–,–,–,–
"CCC1=C(CC(=O)O)c2cc(F)ccc2/C1=C\c1ccoc1 [Sulindac analogue, 15]",6.00,5.30,–,6.05,5.52,–
"CCC1=C(CC(=O)O)c2cc(F)ccc2/C1=C\c1ccc(OCc2ccccc2)cc1 [Sulindac analogue, 16]",5.70,–,–,–,–,–
"CC1=C(CC(=O)O)c2cc(Cl)ccc2/C1=C\c1ccoc1 [Sulindac analogue, 17]",5.30,–,4.85,5.10,–,5.15
"CC1=C(CC(=O)O)c2cc(Br)ccc2/C1=C\c1ccccc1 [Sulindac analogue, 18]",6.00,–,–,–,–,–
"CC1=C(CC(=O)O)c2ccc(Br)cc2/C1=C\c1ccsc1 [Sulindac analogue, 19]",6.00,5.52,5.40,4.92,4.64,5.40
"CC1=C(CC(=O)O)c2ccc(Br)cc2/C1=C/c1ccsc1 [Sulindac analogue, 20]",4.96,–,–,–,–,4.15
"CC1=C(CC(=O)O)c2ccc(Br)cc2/C1=C\c1ccoc1 [Sulindac analogue, 21]",5.52,4.62,4.82,4.66,–,4.89
"CC1=C(CC(=O)O)c2cc(I)ccc2/C1=C\c1cccc(OCc2ccccc2)c1 [Sulindac analogue, 22]",5.15,–,–,–,–,–
"CCC1=C(CC(=O)O)c2cc(/C=C/C(=O)OC(C)(C)C)ccc2/C1=C\c1ccsc1 [Sulindac analogue, 23]",5.30,–,–,–,–,–
"CCC1=C(CC(=O)O)c2cc(C#Cc3ccccc3)ccc2/C1=C\c1ccsc1 [Sulindac analogue, 24]",5.30,–,–,–,–,–
